Measurements: patent US10406120B2, “Methods and compositions for treating kidney disorders” (Golden Biotechnology Corporation, priority 2013, dated 2019)

Assays:
IL-18 = assay: AcP-IgAN model: serum IL-18 ELISA; type: in vivo, B cell-deficient mice; settings: AcP-IgAN mice, day 28, vs control AcP-IgAN mice
Description: (§1) B cell-deficient mice (B6.129S2-Igh-6tm1Cgn/J) were obtained from the Academia Sinica (Professor John T. Kung, Institute of Molecular Biology), and maintained at the animal center of the National Defense Medical Center, Taipei, Taiwan. AcP-IgAN was induced in the mice by daily injection of purified IgA anti-phosphorylcholine antibodies and pneumococcal C-polysaccharide (PnC) as described previously (Chao, et al., Kidney Int. 70:283-297; 2006). All animal experiments were performed with the approval of the Institutional Animal Care and Use Committee of The National Defense Medical Center, Taiwan, and were consistent with the NIH Guide for the Care and Use of Laboratory Animals.
Serum levels of IL-1β (eBiosceience, CA), IL-6 (eBiosceience), IL-18 (MBL, Japan), and MCP-1 (eBiosceience) were measured using commercial ELISA kits according to the manufacturer's instructions.

NLRP3 = assay: AcP-IgAN model: renal NLRP3 mRNA and protein; type: in vivo, B cell-deficient mice; settings: AcP-IgAN mice
Description: as §1
Total cortical kidney RNA was extracted with TriZOL reagents (Invitrogen) from cortical tissue of the kidney. For first-strand cDNA synthesis, 1.5 μg of total RNA was used in a single-round reverse transcriptase reaction. The reaction mixture consisted of 0.9 μl of Oligo (dT) 12 to 18 primer, 1.0 mM deoxyribonucleotide triphosphate (dNTP), 1 μl first strand buffer, 0.4 mM dithiothreitol, 80 U of RNaseout recombinant ribonuclease inhibitor, and 300 U of superscript II RNase H (Invitrogen). Real-time PCR was performed on an ABI Prism 7700 Sequence Detection System (Applied Biosystems, CA). All of the probes and primers were Assays-on-Demand Gene expression products (Applied Biosystems). Real-time PCR reactions were using 10 μl of cDNA, 12.5 μl of TaqMan Universal PCR Master Mix (Applied Biosystems), and 1.25 μl of the specific probe/primer mixed in a total volume of 25 μl. The thermal cycler conditions were as follows: 2 min at 50° C., 10 min at 95° C., 40 cycles of denaturation (15 s at 95° C.), and combined annealing/extension (1 min at 60° C.).
Each protein sample was run on a 10% SDS-PAGE gel. […] The membrane-bound antibody detected was incubated with chemiluminescent reagent plus (PerkinElmer Life Sciences, MA) and captured on x-ray film.

COC1=C(OC)[C@H](O)[C@H](C/C=C(\C)CC/C=C(\C)CCC=C(C)C)[C@@H](C)C1=O [Compound 1, Antroquinonol]
serum IL-18 levels (IL-18): substantial inhibition
protein levels of NLRP3 in the kidney (increase) (NLRP3; both day 3 and day 28, vs AcP-IgAN mice): significantly inhibited
renal NLRP3 mRNA expression levels (NLRP3; day 3): no effects
renal mRNA levels of NLRP3 (NLRP3; day 28, vs control AcP-IgAN mice): substantially reduced
